The test system of experiment [1] is L4 larvae of D. immitis. Description: microbe, parasite or virus in culture. It counts as cell-based. As to conditions: Dirofilaria immitis, 72 h, read-out: MIC100, lowest dose that results in complete loss of motility.
The test system of experiment [2] is D. immitis microfilariae. Description: Activity against D. immitis microfilariae (viability after 3 days incubation). The class given is cell-based. As to conditions: Dirofilaria immitis, in Canis lupus familiaris, 72 h, read-out: Microfilaricidal activity, half maximal effective concentration (EC50).

pEC50: −log10 of the molar value.

Regarding `O=C(CO[C@H]1CC[C@H](Nc2ccc([N+](=O)[O-])c(C(F)(F)F)c2)CC1)N1CCC(Oc2ccc(OC(F)(F)F)cc2)CC1` [Example 266], the MIC in experiment [1] was less than 10 µM. Besides, the pEC50 in experiment [2] is more than 5.30.

Consider `O=C(CO[C@H]1CC[C@H](Nc2ccc([N+](=O)[O-])c(C(F)(F)F)c2)CC1)N1CCC(Nc2ccc(C(F)(F)F)cc2)CC1` [Example 267], for which the MIC in experiment [1] is less than 10 µM. The pEC50 in experiment [2] is more than 5.00.

For the origin of these results see patent US10010538B2, “Use of anthelmintic agents against Dirofilaria immitis” (Intervet Inc., priority 2014, dated 2018).
